# Literature values, collected in patent US20050079205A1, “Oleamide-containing composition for animal consumption” (priority 2003, published 2005).
# What was measured:
# Holstein cows = conditions: 4.2% oleamide through feed or ruminal cannula; cited from earlier work
# lactating Jersey cows = conditions: feed supplemented with up to 3.5% oleamide; cited from earlier work
smiles,measurement,setting,value
"CCCCCCCC/C=C\CCCCCCCC(N)=O [oleamide, cis-9-octadecenioamide]",dry matter intake,Holstein cows,reduction in dry matter intake
same,dry matter intake,lactating Jersey cows,reduction in dry matter intake
